Experimental data as given in PMC2828546, “Screening-based discovery of drug-like O-GlcNAcase inhibitor scaffolds” (Febs Letters, 2010).
Several values for one entry are separate records, joined by “and”; a condition that tells them apart may be missing. Equal values may be shown once. Entries after “also recorded” stand apart in the source; their conditions may differ. Read-outs that look alike come from different tables or passages of the source.

Legend:
hOGA [1] = biological target: T1, hOGA (Homo sapiens, UniProt O60502); details: cited from earlier work
T1 construct: made in house
T1 sequence (O60502 1-916): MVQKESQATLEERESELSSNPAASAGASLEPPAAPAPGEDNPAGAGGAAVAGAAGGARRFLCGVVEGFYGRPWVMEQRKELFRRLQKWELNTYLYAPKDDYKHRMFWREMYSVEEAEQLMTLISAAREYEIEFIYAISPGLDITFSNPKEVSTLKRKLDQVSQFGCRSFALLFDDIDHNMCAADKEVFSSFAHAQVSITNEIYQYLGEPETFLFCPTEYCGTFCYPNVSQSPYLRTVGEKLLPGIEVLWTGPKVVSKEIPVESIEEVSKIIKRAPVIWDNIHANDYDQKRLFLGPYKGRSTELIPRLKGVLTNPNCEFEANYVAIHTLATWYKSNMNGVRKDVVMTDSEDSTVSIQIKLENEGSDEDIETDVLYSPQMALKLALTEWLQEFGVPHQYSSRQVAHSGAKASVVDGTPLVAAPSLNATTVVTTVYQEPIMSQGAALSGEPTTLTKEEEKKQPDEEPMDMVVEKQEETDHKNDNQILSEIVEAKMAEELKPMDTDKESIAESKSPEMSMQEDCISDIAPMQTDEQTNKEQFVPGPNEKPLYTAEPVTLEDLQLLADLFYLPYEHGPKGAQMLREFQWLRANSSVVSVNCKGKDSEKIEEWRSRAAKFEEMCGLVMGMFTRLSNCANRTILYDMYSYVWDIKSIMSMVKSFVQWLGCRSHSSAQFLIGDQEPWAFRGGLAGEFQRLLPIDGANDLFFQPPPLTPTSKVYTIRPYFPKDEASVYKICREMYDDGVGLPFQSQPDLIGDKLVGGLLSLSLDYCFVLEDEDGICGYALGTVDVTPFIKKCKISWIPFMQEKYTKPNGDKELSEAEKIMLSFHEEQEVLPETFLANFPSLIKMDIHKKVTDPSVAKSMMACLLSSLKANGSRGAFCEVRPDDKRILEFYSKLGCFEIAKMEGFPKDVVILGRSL

hOGA [2] = biological target: T1, hOGA; assay: hOGA inhibition, fluorogenic 4MU-NAG substrate; format: biochemical; details: for hOGA BEI (Binding Efficiency Index): BEI = -log(Ki)/M, M in kDa, Ki from IC50 by Cheng-Prusoff; for Selectivity (HexA/B/hOGA): ratio of HexA/B to hOGA inhibition constants; for IC50: 80 μM 4MU-GlcNAc (Km), 60 min, pH 5.7
CpOGA [3] = biological target: T2, CpOGA (Clostridium perfringens, UniProt Q0TR53); details: read-out: CpOGA IC50; cited from earlier work
T2 sequence (Q0TR53 31-624 limits assumed): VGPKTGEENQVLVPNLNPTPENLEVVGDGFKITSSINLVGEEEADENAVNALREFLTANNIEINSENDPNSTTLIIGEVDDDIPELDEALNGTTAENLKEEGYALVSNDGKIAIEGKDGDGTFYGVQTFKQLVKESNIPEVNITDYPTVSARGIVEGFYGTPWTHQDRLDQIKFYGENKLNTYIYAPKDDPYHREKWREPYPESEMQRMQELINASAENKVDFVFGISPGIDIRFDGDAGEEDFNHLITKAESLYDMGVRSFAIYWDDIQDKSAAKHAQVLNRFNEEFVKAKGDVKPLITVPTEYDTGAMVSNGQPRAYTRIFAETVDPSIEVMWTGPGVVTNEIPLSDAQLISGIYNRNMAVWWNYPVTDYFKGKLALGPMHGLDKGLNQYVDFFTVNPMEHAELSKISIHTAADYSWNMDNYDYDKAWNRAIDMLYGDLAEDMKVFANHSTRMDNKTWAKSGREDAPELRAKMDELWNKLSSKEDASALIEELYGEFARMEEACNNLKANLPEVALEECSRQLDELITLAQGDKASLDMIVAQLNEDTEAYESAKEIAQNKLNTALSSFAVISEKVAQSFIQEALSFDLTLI

human hexosaminidase A/B = assay: HexA/B inhibition, fluorogenic 4MU-NAG substrate; format: biochemical; details: 230 μM substrate (Km), 15 min, pH 5.7
Description: Further kinetic experiments to determine the mode of inhibition were carried out according to the procedure described previously. […] IC50 measurements with CpOGA, hOGA and a mixture of human hexosaminidase A/B activities (Sigma A6152) against the compounds were performed using the fluorogenic 4MU-NAG substrate and standard reaction mixtures as described previously with some changes [[39,31,40]]. Standard reaction mixtures (50 μl) contained 0.2 nM CpOGA, 2 nM hOGA or 50 μ units unit/ml HexA/B in McIlvaine buffer (0.2 M Na2HPO4 mixed with 0.1 M citric acid to pH 5.7) supplemented with 0.1 mg/ml BSA. […] The reactions were run at room temperature for 7 min (CpOGA), 60 min (hOGA) or 15 min (HexA/B).

CpOGA [4] = biological target: T2, CpOGA; assay: biochemical; details: read-out: inhibition of CpOGA in the screen
CpOGA [5] = biological target: T2, CpOGA; format: biochemical
CpOGA [6] = biological target: T2, CpOGA; details: read-out: CpOGA Ki; cited from earlier work
CpOGA [7] = biological target: T2, CpOGA; assay: biochemical

| SMILES | hOGA BEI (Binding Efficiency Index) (hOGA [2]) | Selectivity (HexA/B/hOGA) (hOGA [2]) | IC50 (hOGA [2]; 2 nM hOGA, read-out: hOGA IC50) | IC50 (human hexosaminidase A/B) | inhibition mode against CpOGA (CpOGA [5]) | also measured |
| --- | --- | --- | --- | --- | --- | --- |
| CN(N=O)C(=O)N[C@H]1C(O)O[C@H](CO)[C@@H](O)[C@@H]1O (some centres unmarked) [Streptozotocin, streptozotocin] | 11 | 30 |  |  |  | Ki (hOGA [1]; Ki value from literature, read-out: hOGA Ki (printed in hOGA IC50 column)): 1500 µM; IC50 (CpOGA [3]): 30 µM |
| O=C1CC2(CCCC2)CC(=O)N1CCCCN1CCN(c2ncccn2)CC1 [Buspirone, buspirone] |  |  | 25 ± 0.1 µM | 47 ± 3 µM |  |  |
| c1ccc(CNc2ncnc3nc[nH]c23)cc1 [6-benzylaminopurine] |  |  |  |  |  | inhibition at 30.2 µM (CpOGA [4]): 30% |
| CC1CCC(NC(=O)N(CCCl)N=O)CC1 (centres unmarked) [Semustine, semustine] | 16 | 9 |  | 2500 µM | compete for binding to the same CpOGA active site | IC50 (hOGA [2]; hOGA IC50, 2 nM hOGA): > 100 µM |
| CC(=O)N[C@H]1/C(=N/OC(=O)Nc2ccccc2)O[C@H](CO)[C@@H](O)[C@@H]1O [PUGNAc] |  |  |  |  |  | Ki (CpOGA [6]): 0.005 µM |
| CNc1ncnc2nc[nH]c12 [N^6-methyladenine] |  |  | 4 ± 0.3 µM | 300 µM |  |  |
| Cn1c(=O)c2c(ncn2CC(O)CO)n(C)c1=O (centres unmarked) [Diprophylline, diprophylline] | 16 | 1.6 | > 100 µM | 200 ± 30 µM | compete for binding to the same CpOGA active site; also recorded: competitive inhibitor | IC50 (CpOGA [7]): 60 ± 10 µM |
| CC(=O)N1CCN(c2ccc(OCC3COC(Cn4ccnc4)(c4ccc(Cl)cc4Cl)O3)cc2)CC1 (centres unmarked) [Ketoconazole, ketoconazole] |  |  | 4 µM and 4.3 µM | 11 ± 1 µM | compete for binding to the same CpOGA active site |  |
| CCCC1=N[C@@H]2[C@@H](O)[C@H](O)[C@@H](CO)O[C@@H]2S1 [NButGT] |  |  |  |  |  | selectivity for hOGA (hOGA [1]; thiazoline derivative, selectivity for hOGA): 600 fold |
| CC(=O)Nc1nnc(S(N)(=O)=O)s1 [Acetazolamide, acetazolamide] |  |  | 47 ± 0.1 µM |  |  |  |
